For data set [1], the system named is Salmonella paratyphi 1015. In words: MIC, serial dilution method in Müller-Hinton agar. The format is cell-based. The following applies: Salmonella enterica, 37°C, 18 hours. The procedure: (§1) The antibacterial activities of the cephalosporin compounds of the formula (I) according to this invention, specifically the final product compounds of the Examples 1 to 6 given hereinafter, were assayed in term of their minimum inhibitory concentrations (MIC; mcg/ml) against various test bacteria, as determined according to a standard serial dilution method in Müller-Hinton agar medium (a product of Difico company), where the incubation was made at 37°C for 18 hours. For the comparison purpose, the antibacterial spectrum of a known compound, Cefalexin (abbreviated as CEX) was also assayed in the same way as above.

Data set [2] concerns Rms212/Escherichia coli K-12 W3630. In words: MIC, serial dilution method in Müller-Hinton agar. The format is cell-based. The following applies: 18 h. The procedure:
as §1

Data set [3] concerns Rms823/Escherichia coli K-12 W3630. The data set is described as follows: MIC, serial dilution method in Müller-Hinton agar. The format is cell-based. The following applies: 18 h. The procedure:
as §1

The subject of data set [4] is Staphylococcus aureus MS353. In words: MIC, serial dilution method in Müller-Hinton agar. It is filed as cell-based. The procedure:
as §1

Data set [5] relates to Escherichia coli K-12 C600. The data set is described as follows: MIC, serial dilution method in Müller-Hinton agar. The following applies: K12C600; Escherichia coli K-12 C600; Müller-Hinton agar, 37°C, 18 hours; read-out: MIC. It is filed as cell-based. The procedure: as §1
Data set [6] relates to Klebsiella pneumoniae PCI602. In words: MIC, serial dilution method in Müller-Hinton agar. The format is cell-based. The procedure: as §1
The next data set has as its system Proteus rettgeri IFO3850. In words: MIC, serial dilution method in Müller-Hinton agar. The following applies: Providencia rettgeri. It is filed as cell-based. The procedure:
as §1

For data set [7], the system named is Rms139/MI Pseudomonas aeruginosa. The data set is described as follows: MIC, serial dilution method in Müller-Hinton agar. The format is cell-based. The following applies: 18 h. The procedure:
as §1

Data set [8] relates to Escherichia coli NIHJ-JS-2. The data set is described as follows: MIC, serial dilution method in Müller-Hinton agar. The format is cell-based. The following applies: NIHJJS2; Escherichia coli NIHJ-JS-2; Müller-Hinton agar, 37°C, 18 hours; read-out: MIC. The procedure: as §1
The subject of data set [9] is Klebsiella oxytosa GN10560. In words: MIC, serial dilution method in Müller-Hinton agar. It is filed as cell-based. The following applies: Klebsiella oxytosa GN10560, cefuroximase producing strain, 37°C, 18 hours. The procedure: as §1
The test system of data set [10] is Salmonella enteritidis G14. The data set is described as follows: MIC, serial dilution method in Müller-Hinton agar. The format is cell-based. The following applies: Salmonella enterica. The procedure:
as §1

Data set [11] deals with Salmonella typhimurium IID971. The data set is described as follows: MIC, serial dilution method in Müller-Hinton agar. It is filed as cell-based. The following applies: Salmonella enterica. The procedure:
as §1

Data set [12] concerns Pseudomonas aeruginosa IFO3445. In words: MIC, serial dilution method in Müller-Hinton agar. It is filed as cell-based. The following applies: 37°C, 18 hours. The procedure: as §1
In data set [13] the test system is Salmonella schottmulleri 8006. The data set is described as follows: MIC, serial dilution method in Müller-Hinton agar. It is filed as cell-based. The following applies: 37°C, 18 hours. The procedure:
as §1

In another data set the test system is Proteus morganii IFO3848. The data set is described as follows: MIC, serial dilution method in Müller-Hinton agar. The format is cell-based. The following applies: Morganella morganii. The procedure: as §1
In data set [14] the test system is Rms213/Escherichia coli K-12 W3630. In words: MIC, serial dilution method in Müller-Hinton agar. It is filed as cell-based. The following applies: 18 h. The procedure: as §1
For data set [15], the system named is Staphylococcus aureus Terajima. The data set is described as follows: MIC, serial dilution method in Müller-Hinton agar. The format is cell-based. The following applies: 37°C, 18 hours. The procedure:
as §1

In another data set the test system is Salmonella typhi 901. The data set is described as follows: MIC, serial dilution method in Müller-Hinton agar. The format is cell-based. The following applies: Salmonella enterica, 18 h. The procedure: as §1
Data set [16] deals with Bacillus subtilis ATCC6633. In words: MIC, serial dilution method in Müller-Hinton agar. It is filed as cell-based. The following applies: 37°C, 18 hours. The procedure: as §1
In data set [17] the test system is Micrococcus luteus ATCC9341. In words: MIC, serial dilution method in Müller-Hinton agar. The format is cell-based. The following applies: 37°C, 18 hours. The procedure:
as §1

For data set [18], the system named is Staphylococcus aureus FDA209P JC-1. In words: MIC, serial dilution method in Müller-Hinton agar. The format is cell-based. The procedure:
as §1

Data set [19] deals with Rte16/Escherichia coli K-12 W3630. In words: MIC, serial dilution method in Müller-Hinton agar. The following applies: 18 h. It is filed as cell-based. The procedure: as §1
A further data set deals with Proteus vulgaris OX-19. The data set is described as follows: MIC, serial dilution method in Müller-Hinton agar. The format is cell-based. The following applies: OX19, 37°C, 18 hours. The procedure:
as §1

The nature of data set [20]: Test 1: urinary recovery after oral administration. The format is in vivo. The following applies: mice (ICR-strain, female), 300 mcg per mouse, urine collected until 5 hours after administration, microbial assay, molar percentage. The procedure:
To mice (ICR-strain, female, 4 weeks-aged) was orally administered a new cephalosporin compound according to this invention at a dosage of 300 mcg per mouse. Until the end of 5 hours after oral administration of the test cephalosporin compound, all the volumes of urine discharged by the treated mice were collected together, and the total amount of the test compound remaining in the collected urine was measured by a microbial assay method. The urinary recovery of the test compound was calculated in terms of percentage of the molar quantity of the test compound as recovered, against the molar quantity of the test compound as orally given.

The mark [21] stands for this setting: Staphylococcus aureus MS353, Müller-Hinton agar, 37°C, 18 hours, read-out: MIC.
Setting [22] is: Proteus rettgeri IFO3850, Müller-Hinton agar, 37°C, 18 hours, read-out: MIC.
Setting [23] is: Proteus morganii IFO3848, Müller-Hinton agar, 37°C, 18 hours, read-out: MIC.
Setting [24] is: Klebsiella pneumoniae PCI602, Müller-Hinton agar, 37°C, 18 hours, read-out: MIC.
Where [25] appears, read: Salmonella enteritidis G14, Müller-Hinton agar, 37°C, 18 hours, read-out: MIC.
The mark [26] stands for this setting: Staphylococcus aureus, FDA209P, 18 h.

Molecules are shown by their SMILES. In brackets after ≈: the same amount, converted by molar mass. Read-outs that look alike come from different tables or passages of the source.

On to `C=CC1=C(C(=O)O)N2C(=O)C(NC(=O)[C@H](N)c3ccc(CO)c(O)c3)[C@H]2SC1` (stereo partly drawn) [Example 3 Compound, 7-{(R)-2-amino-2-(3-hydroxy-4-hydroxymethylphenyl)acetamido}-3-vinyl-3-cephem-4-carboxylic acid], for which the minimum inhibitory concentration (MIC) (in general, the least concentration at which growth counts as inhibited) was 3.13 µg/mL (≈ 7.72 µM) in [1]; 12.5 µg/mL (≈ 30.8 µM) in data set [2]; above 100 µg/mL in data set [3]; 1.56 µg/mL (≈ 3.85 µM) in data set [4] (setting [21]); 6.25 µg/mL (≈ 15.4 µM) in [5]; 3.13 µg/mL (≈ 7.72 µM) in data set [6] (Klebsiella pneumoniae, PCI602, 18 h). In addition, the minimal inhibitory concentration (MIC) is 50 µg/mL (≈ 123 µM) in the data set with Proteus rettgeri IFO3850 (setting [22]); above 100 µg/mL in data set [7]; 6.25 µg/mL (≈ 15.4 µM) in data set [8]; above 100 µg/mL in data set [9]; 3.13 µg/mL (≈ 7.72 µM) in [10] (ENTERITIDIS, 18 h); 3.13 µg/mL (≈ 7.72 µM) in data set [11] (18 h). The MIC in data set [12] was above 100 µg/mL; in [13] it was 3.13 µg/mL (≈ 7.72 µM); in the data set with Proteus morganii IFO3848 (setting [23]), 50 µg/mL (≈ 123 µM); in data set [14], 12.5 µg/mL (≈ 30.8 µM); in data set [15], 0.2 µg/mL (≈ 0.493 µM); against Salmonella typhi 901 it was 3.13 µg/mL (≈ 7.72 µM). For the same molecule, the MIC in [16] is 0.05 µg/mL (≈ 0.123 µM); in data set [17] it was 0.2 µg/mL (≈ 0.493 µM); in data set [18] (Staphylococcus aureus FDA209P JC-1, Müller-Hinton agar, 37°C, 18 hours, read-out: MIC), 1.56 µg/mL (≈ 3.85 µM); in [19] it was 12.5 µg/mL (≈ 30.8 µM); against Proteus vulgaris OX-19 it was 25 µg/mL (≈ 61.7 µM). The molecule also registered a dose excreted in data set [20] of 65%.
Turning to `C/C=C\C1=C(C(=O)O)N2C(=O)C(NC(=O)[C@H](N)c3ccc(CO)c(O)c3)[C@H]2SC1` (stereo partly drawn) [Example 4 Compound, 7-{(R)-2-amino-2-(3-hydroxy-4-hydroxymethylphenyl)acetamido)-3-{(Z)-1-propenyl)-3-cephem-4-carboxylic acid], the minimal inhibitory concentration (MIC) in [1] came to 1.56 µg/mL (≈ 3.72 µM); in [2] it was 12.5 µg/mL (≈ 29.8 µM); in data set [3] it was 100 µg/mL (≈ 238 µM); in data set [4] (Staphylococcus aureus, MS353, 18 h) it was 1.56 µg/mL (≈ 3.72 µM); in data set [5], 3.13 µg/mL (≈ 7.46 µM); in data set [6] (setting [24]), 0.78 µg/mL (≈ 1.86 µM). Also, the minimum inhibitory concentration (MIC) was 1.56 µg/mL (≈ 3.72 µM) in the data set with Proteus rettgeri IFO3850 (IFO3850, 18 h); above 100 µg/mL in data set [7]; 6.25 µg/mL (≈ 14.9 µM) in data set [8]; above 100 µg/mL in data set [9]; 0.78 µg/mL (≈ 1.86 µM) in [10] (setting [25]); 1.56 µg/mL (≈ 3.72 µM) in data set [11] (18 h). The minimum inhibitory concentration (MIC) was above 100 µg/mL in [12]; 1.56 µg/mL (≈ 3.72 µM) in [13]; 1.56 µg/mL (≈ 3.72 µM) with Proteus morganii IFO3848 (IFO3848, 18 h); 6.25 µg/mL (≈ 14.9 µM) in [14]; 0.1 µg/mL (≈ 0.238 µM) in data set [15]; 0.78 µg/mL (≈ 1.86 µM) with Salmonella typhi 901. For the same molecule, the MIC in [16] worked out at 0.2 µg/mL (≈ 0.477 µM); in data set [17] it was 0.1 µg/mL (≈ 0.238 µM); in data set [18] (setting [26]), 1.56 µg/mL (≈ 3.72 µM); in data set [19], 12.5 µg/mL (≈ 29.8 µM); against Proteus vulgaris OX-19 it was 25 µg/mL (≈ 59.6 µM). This molecule came in with a dose excreted in [20] of 58.8%.
In the case of `C/C=C\C1=C(C(=O)O)N2C(=O)C(NC(=O)[C@H](N)c3ccc(CO)c(OC)c3)[C@H]2SC1` (stereo partly drawn) [Example 5 Compound, 7-{(R)-2-amino-2-(4-hydroxymethyl-3-methoxyphenyl)acetamido}-3-{(Z)-1-propenyl}-3-cephem-4-carboxylic acid], the MIC in data set [1] is 0.78 µg/mL (≈ 1.8 µM); in data set [2], 12.5 µg/mL (≈ 28.8 µM); in [3], above 100 µg/mL; in [4] (setting [21]) it was 0.78 µg/mL (≈ 1.8 µM); in data set [5] it was 3.13 µg/mL (≈ 7.22 µM); in data set [6] (setting [24]), 0.78 µg/mL (≈ 1.8 µM). In addition, the minimal inhibitory concentration (MIC) was 3.13 µg/mL (≈ 7.22 µM) in the data set with Proteus rettgeri IFO3850 (setting [22]); 100 µg/mL (≈ 231 µM) in [7]; 6.25 µg/mL (≈ 14.4 µM) in data set [8]; above 100 µg/mL in data set [9]; 0.78 µg/mL (≈ 1.8 µM) in [10] (setting [25]); 3.13 µg/mL (≈ 7.22 µM) in data set [11] (Salmonella typhimurium IID971, Müller-Hinton agar, 37°C, 18 hours, read-out: MIC). The MIC in [12] was above 100 µg/mL; in data set [13], 0.39 µg/mL (≈ 0.9 µM); in the data set on Proteus morganii IFO3848 (setting [23]) it was 3.13 µg/mL (≈ 7.22 µM); in data set [14], 25 µg/mL (≈ 57.7 µM); in data set [15], 0.1 µg/mL (≈ 0.231 µM); against Salmonella typhi 901, 1.56 µg/mL (≈ 3.6 µM). Besides, the MIC turned out to be 0.05 µg/mL (≈ 0.115 µM) in data set [16]; 0.025 µg/mL (≈ 0.0577 µM) in data set [17]; 1.56 µg/mL (≈ 3.6 µM) in [18] (setting [26]); 3.13 µg/mL (≈ 7.22 µM) in [19]; 50 µg/mL (≈ 115 µM) in the data set with Proteus vulgaris OX-19. This molecule also came in with a dose excreted in data set [20] of 47.9%.
